Test results from PubChem BioAssay AID720587 (Broad Institute, 2013).

Test system: A673 Ewing sarcoma viability, CellTiter-Glo ATP luminescence, 72 h
Assay: EWS/Fli1-dependent A673 cell killing, confirmation, CellTiter-Glo luminescence, cherry-pick retest (AID 720587)

Compared with COc1ccc(/C=C/C(=O)c2ccc(C(=O)/C=C/c3ccc(OC)c(OC)c3)cc2)cc1OC, COc1ccc(-c2cnc3c(NC=O)cc(-c4ccccc4OC)cn23)cc1OC is 50-fold lower in AC35: 5.02 µM for the first, 0.101 µM for the second.

Going from COc1ccccc1N(/N=C1\Sc2ccccc2C1=O)C(C)=O to COc1ccc(/C=C2\Oc3ccccc3C2=O)cc1, the AC35 rises from 14.8 µM to 22.9 µM (1.5-fold).

Going from Cc1nc(N)nc(N)c1-c1ccc(Cl)c(Cl)c1 to Cc1nc(N)nc(N)c1CCCc1ccc(Cl)c(Cl)c1, the AC35 rises from 0.928 µM to 2.8 µM (3-fold).

First: C(=NNc1ccc2ccccc2n1)c1ccccn1
Second: C(=N\Nc1nc2ccccc2[nH]1)/c1ccccn1
The AC35 of the first is 3.4-fold lower: 0.514 µM for the first, 1.74 µM for the second.

COc1cc(/C=N\Nc2nc(-c3ccc(C)cc3)c(NC(C)=O)s2)ccc1O and COc1ccc(/C=C2/NC(=O)N(CC(=O)Nc3cccc(C)c3)C2=O)cc1O are within 1.5-fold of each other in AC35: 14.4 µM for the first, 18.8 µM for the second.

Compared with CC[C@@H]1C[C@H]2CC[C@H](O2)[C@H](C)C(=O)O[C@@H](C)C[C@@H]2CC[C@@H](O2)[C@@H](C)C(=O)O[C@H](C)C[C@H]2CC[C@H](O2)[C@H](C)C(=O)O[C@@H](C)C[C@@H]2CC[C@@H](O2)[C@@H](C)C(=O)O1, CC(=O)OC1CC(OC2C(O)CC(OC3C(O)CC(OC4CCC5(C)C(CCC6C5CCC5(C)C(C7=CC(=O)OC7)CCC65O)C4)OC3C)OC2C)OC(C)C1OC1OC(CO)C(O)C(O)C1O (stereo unspecified) is 2.3-fold lower in AC35: 0.243 µM for the first, 0.105 µM for the second.

First: O=C(N/N=C/c1cnc(N2CCCCC2)s1)c1ccc(C(F)(F)F)cc1
Second: C[C@@H]1CCCCO[C@H](CN(C)Cc2ccc(C(F)(F)F)cc2)[C@H](C)CN([C@H](C)CO)C(=O)c2cc(NC(=O)CCCN(C)C)ccc2O1
The AC35 of the first is 1.8-fold higher: 13.8 µM for the first, 7.73 µM for the second.

OCC1OC(n2ccc3c2ncn2ncnc32)C(O)C1O (stereo unspecified) and N=c1ccn2c(n1)O[C@H]1[C@H](O)[C@@H](CO)O[C@H]12 are within 1.5-fold of each other in AC35: 0.693 µM for the first, 0.74 µM for the second.

First: Cc1nc2ncccn2c1-c1csc(Nc2ccc(O)cc2)n1
Second: COc1cccc(OC)c1C(=O)Nc1cc(C)nn1-c1nc2ccccc2[nH]1
The AC35 of the first is 9.8-fold lower: 1.35 µM for the first, 13.2 µM for the second.

COC(=O)C(CC#Cc1ccc2c(c1)[C@]1(C(=O)N2)[C@H](c2ccc(OCCO)cc2)N2[C@H](c3ccccc3)[C@H](c3ccccc3)OC(=O)[C@H]2[C@@H]1C(=O)N1CCN(c2ncccn2)CC1)C(=O)OC and C[C@@H]1CN([C@@H](C)CO)C(=O)c2cc(NS(=O)(=O)c3ccccc3)ccc2O[C@@H]1CN(C)Cc1ccc(C(=O)Nc2ccccc2N)cc1 are within 1.5-fold of each other in AC35: 7.81 µM for the first, 8.39 µM for the second.

COc1ccc(S(=O)(=O)Nc2ccc3c(c2)C(=O)N([C@H](C)CO)C[C@@H](C)[C@@H](CN(C)CC2CCCCC2)OCCCC[C@H](C)O3)cc1 and Cc1ccc(S(=O)(=O)Nc2ccc3c(c2)C(=O)N([C@H](C)CO)C[C@H](C)[C@@H](CN(C)Cc2ccc(C(F)(F)F)cc2)OCCCC[C@H](C)O3)cc1 are within 1.5-fold of each other in AC35: 12.3 µM for the first, 12.8 µM for the second.

Going from O=C(NCc1ccc(F)cc1)N1[C@H]2CC[C@@H]1C=C(c1ccc(F)cc1OCc1ccccc1)C2 to O=C(C[C@@H]1C[C@H]2c3cc(NS(=O)(=O)c4ccc(F)cc4)ccc3O[C@H]2[C@H](CO)O1)NCc1ccc(-c2ccccc2)cc1, the AC35 rises from 1.89 µM to 4.21 µM (2.2-fold).

C[C@H](CO)N1C[C@H](C)[C@H](CN(C)Cc2ccccc2)Oc2ccc(NC(=O)CCCCCC(=O)Nc3ccccc3N)cc2CC1=O and C[C@@H]1CN([C@@H](C)CO)C(=O)Cc2cc(NC(=O)C3CCCCC3)ccc2O[C@H]1CN(C)Cc1ccc(C(=O)Nc2ccccc2N)cc1 are within 1.5-fold of each other in AC35: 15.7 µM for the first, 20.8 µM for the second.

COC(=O)C[C@H]1CC[C@@H]2[C@H](COc3ccc(NC(=O)Nc4cccc(Cl)c4)cc3C(=O)N2C)O1 and COC(=O)C[C@H]1CC[C@H]2[C@@H](COc3ccc(NC(=O)Nc4cccc(Cl)c4)cc3C(=O)N2C)O1 are within 1.5-fold of each other in AC35: 14.1 µM for the first, 14.7 µM for the second.

Compared with COc1ccc(C2=NNC(=Nc3cc(S(=O)(=O)N(C)C)ccc3C)SC2)c(OC)c1, COc1ccc(S(=O)(=O)N2CC[C@@H]3[C@@H](CO)Nc4ccc(-c5ccc(C#N)cc5)cc4[C@@H]32)cc1 is 2.3-fold lower in AC35: 20.5 µM for the first, 8.87 µM for the second.

CCc1ccc(/C=C2\SC(=S)N(CCCC(=O)NCCCN3CCOCC3)C2=O)cc1 and O=C(c1cccc(S(=O)(=O)NCc2ccccc2)c1)N1CCN(c2ccccc2)CC1 are within 1.5-fold of each other in AC35: 18.7 µM for the first, 20.8 µM for the second.

First: O=C1NC(=O)N(Cc2ccccc2)C(=O)/C1=C\C=C\c1ccco1
Second: CC(C)(C)c1ccc(Cn2c(=O)cnc3ccccc32)cc1
The AC35 of the first is 2.5-fold lower: 5.05 µM for the first, 12.5 µM for the second.

First: Cc1ccc(N2C(=O)c3cccc4c(N)ccc(c34)C2=O)c2cccnc12
Second: O=C(Sc1cccc2cccnc12)c1ccccc1Br
The AC35 of the first is 20-fold lower: 0.0576 µM for the first, 1.17 µM for the second.

C[C@@H]1CN([C@@H](C)CO)C(=O)Cc2cc(NS(=O)(=O)c3cccs3)ccc2O[C@H]1CN(C)Cc1ccc(Cl)c(Cl)c1 and C[C@H](CO)N1C[C@H](C)[C@H](CN(C)Cc2ccc(C(=O)Nc3ccccc3N)cc2)Oc2ccc(NS(=O)(=O)c3cccs3)cc2C1=O are within 1.5-fold of each other in AC35: 12.5 µM for the first, 14.5 µM for the second.

Compared with Nc1nc(N)c2cc(Sc3ccc4ccccc4c3)ccc2n1, Nc1nc2cc3c(cc2cc1C(=O)NCCc1c[nH]c2ccccc12)OCO3 is 2.4-fold higher in AC35: 3.35 µM for the first, 8.07 µM for the second.

Compared with COC(=O)C[C@@H]1CC[C@@H]2[C@H](COc3ccc(NC(=O)c4ccc(F)cc4)cc3C(=O)N2C)O1, C[C@H](CO)N1C[C@H](C)[C@H](CN(C)Cc2ccc(C(=O)Nc3ccccc3N)cc2)Oc2ccc(N(C)C)cc2C1=O is 2.4-fold lower in AC35: 23 µM for the first, 9.49 µM for the second.

First: Oc1c(Cl)cc(Cl)c(Cl)c1Cc1c(O)c(Cl)cc(Cl)c1Cl
Second: Oc1c(C(c2ccc(Cl)cc2)N2CCCC2)cc(Cl)c2cccnc12 (stereo unspecified)
The AC35 of the first is 11-fold higher: 15.9 µM for the first, 1.47 µM for the second.

Compared with CC(=O)ON=C1C=CC(=C(C#N)c2ccccc2)C=C1, C/C(=C\c1ccccc1)C(=O)N1CCC=CC1=O is 1.6-fold higher in AC35: 5.49 µM for the first, 9 µM for the second.

Going from Nc1nc(N)c2c(ccc3nccc32)[nH]1 to N#CC1=C(N)Oc2cc(N)ccc2C1c1cccc(F)c1 (stereo unspecified), the AC35 falls from 7.01 µM to 3.12 µM (2.2-fold).

Cc1cccc(/C=C(\c2nc3ccccc3[nH]2)S(=O)(=O)c2ccccc2)c1 and S=c1[nH]nc(-c2cc(-c3ccccc3)n[nH]2)n1/N=C/C(Br)=C/c1ccccc1 are within 1.5-fold of each other in AC35: 5.92 µM for the first, 5.5 µM for the second.

First: Cc1ccc(C(C)C)c(OCc2ccc(C(=O)N/N=C/c3ccc(O)cc3O)cc2)c1
Second: C[C@@H]1CN([C@@H](C)CO)C(=O)c2cccc(N(C)C)c2O[C@@H]1CN(C)Cc1ccc(C(=O)Nc2ccccc2N)cc1
The AC35 of the first is 47-fold lower: 0.296 µM for the first, 13.8 µM for the second.

First: COC1C(O)C(C)OC(OC2CCC3(C)C(CCC4C3C(O)CC3(C)C(C5=CC(=O)OC5)CCC43O)C2)C1O (stereo unspecified)
Second: C[C@@H]1O[C@@H](O[C@H]2C[C@@H](O)[C@]3(CO)[C@@H]4C(CC[C@]3(O)C2)[C@@]2(O)CC[C@H](C3COC(=O)C3)[C@@]2(C)C[C@H]4O)[C@H](O)[C@H](O)[C@H]1O (stereo partly specified)
The AC35 of the first is 10-fold lower: 0.228 µM for the first, 2.3 µM for the second.

First: C[C@H]1CN([C@@H](C)CO)S(=O)(=O)c2ccc(C#Cc3ccncc3)cc2O[C@@H]1CN(C)S(=O)(=O)c1ccccc1
Second: C[C@H]1CN([C@@H](C)CO)S(=O)(=O)c2ccc(C#Cc3ccncc3)cc2O[C@@H]1CN(C)C(=O)Nc1ccc2c(c1)OCO2
The AC35 of the first is 26-fold higher: 16.5 µM for the first, 0.64 µM for the second.

First: C(=Cc1nc2ccccc2o1)c1ccc2c(c1)OCO2
Second: COc1cc(C(=O)N2CCC(N3CCN(C)CC3)CC2)ccc1Nc1ncc2c(n1)N(C)c1ccccc1C(=O)N2C
The AC35 of the first is 1.9-fold higher: 19 µM for the first, 10 µM for the second.

First: C[C@@H]1CN([C@@H](C)CO)C(=O)c2cccc(NS(=O)(=O)c3ccc(F)cc3)c2O[C@@H]1CN(C)Cc1ccc(C(=O)Nc2ccccc2N)cc1
Second: COC(=O)C[C@H]1C=C[C@@H](NC(=O)Nc2ccc(C(F)(F)F)cc2)[C@H](CO)O1
The AC35 of the first is 2.6-fold lower: 8.41 µM for the first, 21.6 µM for the second.

Molecule COc1ccc(/C=C(/C(=O)c2cccs2)N2C=CC=CC2=C(C#N)C#N)cc1 has an AC35 of 3.97 µM.
